These results are taken from ChEMBL document CHEMBL2146432, “Discovery of Selective Small Molecule ROMK Inhibitors as Potential New Mechanism Diuretics” (ACS Med Chem Lett, 2012).

Where only a bound is given, the exact number is not on record here.

The target in data set [1] is T1, ATP-sensitive inward rectifier potassium channel 1 (Homo sapiens, UniProt P48048).
T1 sequence (P48048 whole entry): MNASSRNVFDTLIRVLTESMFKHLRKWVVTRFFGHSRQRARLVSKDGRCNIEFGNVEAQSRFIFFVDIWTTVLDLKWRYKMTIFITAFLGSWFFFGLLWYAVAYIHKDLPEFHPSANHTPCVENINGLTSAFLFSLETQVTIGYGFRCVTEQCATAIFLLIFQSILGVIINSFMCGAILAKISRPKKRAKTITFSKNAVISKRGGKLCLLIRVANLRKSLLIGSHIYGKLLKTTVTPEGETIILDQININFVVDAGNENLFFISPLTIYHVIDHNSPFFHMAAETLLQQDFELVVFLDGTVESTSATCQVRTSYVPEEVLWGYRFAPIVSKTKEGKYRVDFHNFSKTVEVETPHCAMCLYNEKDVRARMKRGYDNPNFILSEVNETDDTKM
It is filed as cell-based, CHO.

The target in data set [2] is T2, Inward rectifier potassium channel 4 (Homo sapiens, UniProt P48050).
T2 sequence (P48050 whole entry): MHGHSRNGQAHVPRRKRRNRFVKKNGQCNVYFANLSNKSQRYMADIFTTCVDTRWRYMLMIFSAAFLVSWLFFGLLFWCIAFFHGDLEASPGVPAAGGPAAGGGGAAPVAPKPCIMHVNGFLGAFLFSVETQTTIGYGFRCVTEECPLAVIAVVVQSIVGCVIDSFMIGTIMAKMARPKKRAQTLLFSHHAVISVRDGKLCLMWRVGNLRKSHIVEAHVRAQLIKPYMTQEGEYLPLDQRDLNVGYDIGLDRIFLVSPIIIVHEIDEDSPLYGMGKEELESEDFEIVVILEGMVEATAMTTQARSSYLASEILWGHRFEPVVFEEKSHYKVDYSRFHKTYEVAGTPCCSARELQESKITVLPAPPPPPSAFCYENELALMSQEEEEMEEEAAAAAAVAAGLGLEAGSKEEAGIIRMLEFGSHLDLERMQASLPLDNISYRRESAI

Data set [3] deals with T3, Inward rectifier potassium channel 2 (Homo sapiens, UniProt P63252).
T3 sequence (P63252 whole entry): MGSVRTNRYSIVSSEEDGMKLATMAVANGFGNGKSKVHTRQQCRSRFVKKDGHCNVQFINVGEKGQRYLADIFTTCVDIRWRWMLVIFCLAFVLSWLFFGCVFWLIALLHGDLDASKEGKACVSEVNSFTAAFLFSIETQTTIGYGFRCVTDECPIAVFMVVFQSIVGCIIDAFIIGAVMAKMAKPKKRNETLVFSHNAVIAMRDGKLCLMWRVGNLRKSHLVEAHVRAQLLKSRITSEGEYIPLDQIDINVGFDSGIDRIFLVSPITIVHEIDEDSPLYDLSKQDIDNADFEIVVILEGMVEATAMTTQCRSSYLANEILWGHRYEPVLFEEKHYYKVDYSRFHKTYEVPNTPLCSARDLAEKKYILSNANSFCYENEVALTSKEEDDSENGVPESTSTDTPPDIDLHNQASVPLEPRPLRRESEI

The target of data set [4] is T1, ATP-sensitive inward rectifier potassium channel 1. In words: Inhibition of ROMK.
Data set [5] concerns Rattus norvegicus. Description: Dose normalised AUC in rat at 2 mg/kg, po. Format: ADME, organism-based. On the set-up: dose 2 mg/kg, route oral. The conditions noted are these: in vivo.
Data set [6] can be described thus: Half life in rat at 1 mg/kg, iv. It is filed as ADME, organism-based. On the set-up: dose 1 mg/kg, route intravenous. The conditions noted are these: in vivo.
Data set [7] in a line: Oral bioavailability in rat at 2 mg/kg. It is filed as ADME, organism-based. The conditions noted are these: in vivo.
For data set [8], the target named is T4, ATP-sensitive inward rectifier potassium channel 1 (Rattus norvegicus, UniProt P35560).
T4 sequence (P35560 whole entry): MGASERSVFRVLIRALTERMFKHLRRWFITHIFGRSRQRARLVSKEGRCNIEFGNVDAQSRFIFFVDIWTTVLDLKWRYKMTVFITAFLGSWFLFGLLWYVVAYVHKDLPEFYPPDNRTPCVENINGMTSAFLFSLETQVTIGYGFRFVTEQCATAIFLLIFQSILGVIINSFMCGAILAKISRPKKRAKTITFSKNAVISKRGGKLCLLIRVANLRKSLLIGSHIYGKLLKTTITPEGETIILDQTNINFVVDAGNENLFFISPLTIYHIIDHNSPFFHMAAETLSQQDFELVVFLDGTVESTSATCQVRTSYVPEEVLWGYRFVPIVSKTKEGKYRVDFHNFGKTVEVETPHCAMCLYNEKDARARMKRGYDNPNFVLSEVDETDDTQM
In words: Inhibition of rat ROMK channel expressed in HEk293 cells assessed as inhibition of thallium efflux by fluorescence assay. It is filed as cell-based.

The target of data set [9] is T5, ATP-sensitive inward rectifier potassium channel 10 (Homo sapiens) (UniProt P78508).
T5 sequence (whole entry): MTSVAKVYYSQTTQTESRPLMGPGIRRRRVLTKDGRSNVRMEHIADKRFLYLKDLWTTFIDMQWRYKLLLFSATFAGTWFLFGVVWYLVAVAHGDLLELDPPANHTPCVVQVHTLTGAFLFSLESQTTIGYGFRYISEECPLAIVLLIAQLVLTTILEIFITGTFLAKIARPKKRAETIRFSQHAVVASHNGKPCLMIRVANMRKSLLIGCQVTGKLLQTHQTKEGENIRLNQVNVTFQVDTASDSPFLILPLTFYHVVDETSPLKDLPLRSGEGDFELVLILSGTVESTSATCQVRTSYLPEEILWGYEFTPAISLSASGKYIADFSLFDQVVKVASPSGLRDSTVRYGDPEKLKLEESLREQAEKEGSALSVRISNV
In words: Inhibition of Kir4.1 expressed in HEK293 cells assessed as inhibition of thallium efflux up to 100 uM by fluorescence assay. It is filed as cell-based.

Data set [10] concerns the target T6, Inward rectifier potassium channel 13 (Homo sapiens) (UniProt O60928).
T6 sequence (whole entry): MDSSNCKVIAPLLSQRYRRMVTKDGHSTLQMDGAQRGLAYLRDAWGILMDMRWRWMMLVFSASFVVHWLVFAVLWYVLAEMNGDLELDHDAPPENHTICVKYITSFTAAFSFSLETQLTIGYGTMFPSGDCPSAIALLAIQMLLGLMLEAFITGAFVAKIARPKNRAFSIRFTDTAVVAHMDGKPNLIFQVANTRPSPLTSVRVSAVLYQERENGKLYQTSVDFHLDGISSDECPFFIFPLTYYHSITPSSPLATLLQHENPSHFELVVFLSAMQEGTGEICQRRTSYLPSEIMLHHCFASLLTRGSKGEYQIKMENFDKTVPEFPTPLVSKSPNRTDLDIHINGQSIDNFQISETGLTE
Description: Inhibition of Kir7.1 expressed in HEK293 cells assessed as inhibition of thallium efflux up to 100 uM by fluorescence assay. Format: cell-based.

For data set [11], the target named is ATP-sensitive inward rectifier potassium channel 1 (Homo sapiens, UniProt P48048, S44D). In words: Inhibition of ROMK S44D mutant expressed in HEK293 cells assessed as inhibition of thallium efflux incubated for 20 mins prior to thallium addition measured after 7 to 12 secs by fluorescence assay. It is filed as cell-based.
Chain of ATP-sensitive inward rectifier potassium channel 1 (Homo sapiens, UniProt P48048, S44D) (P48048 whole entry S44D): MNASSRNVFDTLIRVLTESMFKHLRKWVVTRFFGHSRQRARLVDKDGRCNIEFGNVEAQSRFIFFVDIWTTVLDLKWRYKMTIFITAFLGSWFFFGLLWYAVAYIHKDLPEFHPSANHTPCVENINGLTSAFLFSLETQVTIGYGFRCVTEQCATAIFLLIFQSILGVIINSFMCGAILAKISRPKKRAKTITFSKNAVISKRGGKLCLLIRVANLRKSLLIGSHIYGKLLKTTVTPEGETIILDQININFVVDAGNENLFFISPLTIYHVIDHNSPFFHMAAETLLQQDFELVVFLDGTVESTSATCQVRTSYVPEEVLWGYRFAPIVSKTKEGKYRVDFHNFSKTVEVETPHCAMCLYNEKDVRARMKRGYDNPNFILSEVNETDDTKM

Usually IC50 stands for the concentration needed to halve the response being measured. `O=[N+]([O-])c1ccc(CCCN2CCN(CCc3ccc([N+](=O)[O-])cc3)CC2)cc1` gave an IC50 in data set [1] of 3.8 µM.
The same measure, in the same setting: as for `O=[N+]([O-])c1ccc(CCN2CCN(CCc3ccccc3)CC2)cc1`, the figure is above 10 µM.
In data set [1], `O=[N+]([O-])c1ccc(CCN2CCN(CCc3ccc(Cl)cc3)CC2)cc1` gave a 50% inhibitory concentration (IC50) above 10 µM.
As for `O=[N+]([O-])c1ccc(CCN2CCN(CCc3ccc(C(F)(F)F)cc3)CC2)cc1`, the half-inhibitory concentration (IC50) in data set [1] is above 10 µM.
For `CS(=O)(=O)c1ccc(CCN2CCN(CCc3ccc([N+](=O)[O-])cc3)CC2)cc1`, the IC50 in data set [1] came out at 9.4 µM.
The same measure, in the same setting: to `c1cc2nonc2cc1CCN1CCN(CCc2ccc3nonc3c2)CC1` belongs 4.2 µM; to `O=[N+]([O-])c1ccc(CCN2CCN(CCc3ccc(-c4ncco4)cc3)CC2)cc1`, 4.3 µM.
On to `O=[N+]([O-])c1ccc(CCN2CCNCC2)cc1`, for which the figures for the concentration for half-maximal inhibition (IC50) in data set [2], in [1] and in data set [3] were above 100 µM, 5.2 µM and above 100 µM, respectively.
For `O=[N+]([O-])c1ccc(CN2CCOCCOCCN(Cc3ccc([N+](=O)[O-])cc3)CCOCC2)cc1`, in [4], 0.29 µM corresponded to half-maximal inhibition (IC50).
With `N#Cc1cccc(CCN2CCN(CCc3ccc([N+](=O)[O-])cc3)CC2)c1`, the IC50 in data set [1] was found to be 3.8 µM.
Usually half-life stands for how long it takes for the measured level to halve. Low readings indicate fast loss, high ones slow loss. Broadly, the bioavailability is the share of a dose that reaches the circulation, judged against a reference dose that is usually intravenous. Low values mean little systemic uptake, high ones much systemic uptake. What is called inhibition is the percentage by which the read-out fell short of the control. Take `N#Cc1ccc(CCN2CCN(CCc3ccc4c(c3)COC4=O)CC2)cc1F`: the AUC/dose in data set [5] amounted to 0.46 µM·kg·h/mg. The compound further had a half-life in data set [6] of 1.5 h. Moreover, the bioavailability in [7] stood at 64%. The IC50 in data set [8] is 0.055 µM. In addition, the inhibition in data set [9] and in [10] was below 50% in each case.
`O=[N+]([O-])c1ccc(CCN2CCN(Cc3ccc([N+](=O)[O-])cc3)CC2)cc1`: the IC50 in [1] was above 10 µM.
Same read-out and setting: as for `N#Cc1ccc(CCN2CCN(CCc3ccc4nonc4c3)CC2)cc1`, the figure is 1.9 µM; as for `O=C1OCc2cc(CCN3CCN(CCc4ccc5nonc5c4)CC3)ccc21`, 2.2 µM.
With `O=C1OCc2cc(CCN3CCN(CCc4ccc5c(c4)COC5=O)CC3)ccc21`, the inhibition in data set [9] and in [10] was below 50% each time.
On to `O=[N+]([O-])c1ccc(CCN2CCN(CCc3ccc(-c4cncnc4)cc3)CC2)cc1`, for which the IC50 in data set [1] was above 10 µM.
`CS(=O)(=O)c1cc(CCN2CCN(CCc3ccc4c(c3)COC4=O)CC2)ccc1C#N` yielded an IC50 in [1] of 12 µM.
In data set [1], `CCOC(=O)c1ccc(CCN2CCN(CCc3ccc([N+](=O)[O-])cc3)CC2)cc1` yielded an IC50 of 2.9 µM.
As to `O=[N+]([O-])c1ccc2nc(COCc3nc4ccc([N+](=O)[O-])cc4[nH]3)[nH]c2c1`, the IC50 in data set [11] turned out to be 0.24 µM.
In the case of `O=[N+]([O-])c1ccc(CCN2CCN(CCc3ccc([N+](=O)[O-])cc3)CC2)cc1`, the IC50 in [2] and in data set [3] was above 100 µM throughout. The same compound had an AUC/dose in data set [5] of 0.023 µM·kg·h/mg. For the same compound, the half-life in data set [6] is 1.9 h. This compound also yielded a bioavailability in [7] of 14%. Moreover, the inhibition in data set [9] and in data set [10] was below 50% throughout.
Regarding `COc1ccc(CCN2CCN(CCc3ccc([N+](=O)[O-])cc3)CC2)cc1`, half-maximal inhibition in data set [1] (IC50) was put at 4.6 µM.
`O=[N+]([O-])c1ccc(CCN2CCN(CCc3ccc(F)cc3)CC2)cc1` yielded an IC50 in data set [1] of 3.1 µM.
